Reference: US20090143236A1, “Method of detecting cancer cell acquiring drug-resistance” (BML, INC., priority 2004, published 2009)

Tested on: SKOV3 cells and SKOV3/VP cells
Test: Caspase activity (colorimetric CaspACE assay) of ovarian cancer cells treated with VP-16
Type: cell-based, Human
Details: 100 μg/ml VP-16, 24 hours; FIG. 4A
Procedure: Caspase activity was measured using a calorimetric CaspACE assay system (Promega Co., Madison, Wis., U.S.A.) in accordance with the instructions included therewith. SKOV3 cells and SKOV3/VP cells were cultured for 24 hours in the presence of 100 μg/ml VP-16, or VP-16 and the caspase inhibitor Z-VAD-FMK, or in the presence of only a medium (control). The cells were dissolved in a lysis buffer, and the resultant was then subjected to centrifugation at 4° C. at 15,000×g for 20 minutes. The supernatant (containing 100 μg of protein) was incubated with a substrate (Ac-DEVD-pNA) used for the measurement of caspase activity at 37° C. for 4 hours. Thereafter, the absorbance at 405 nm was measured, so as to obtain the activity.
The influence of BCL2L2 gene expression on apoptosis induced by anticancer drugs was analyzed. Human ovarian cancer SKOV3 cells and etoposide-resistant ovarian cancer SKOV3/VP cells were cultured for 24 hours in the presence of 100 μg/ml VP-16, so as to measure apoptosis associated with activation of caspase-3. […] Thereafter, in order to analyze the role of the BCL2L2 gene, the cells were treated with the antisense oligonucleotide of BCL2L2, and the influence of VP-16 was analyzed under conditions wherein expression of the BCL2L2 gene was suppressed. […]

## COc1cc([C@@H]2c3cc4c(cc3[C@@H](O[C@@H]3O[C@@H]5CO[C@@H](C)O[C@H]5[C@H](O)[C@H]3O)[C@H]3COC(=O)[C@H]23)OCO4)cc(OC)c1O [VP-16, etoposide]
  caspase activity in etoposide-resistant SKOV3/VP cells compared with parent line SKOV3: decreased to approximately one-half
